# According to ChEMBL document CHEMBL5241053, “Discovery of novel steroidal-chalcone hybrids with potent and selective activity against triple-negative breast cancer” (Bioorg Med Chem, 2020):
# Active and inactive are the calls of the source. The calls are words filed in the database; no cut-off is given here.
# How the values were obtained:
# MDA-MB-231 [1] = test: Induction of apoptosis in human MDA-MB-231 cells assessed as decrease in Bcl-2 level upto 20 uM incubated for 48 hrs by Western blot analysis; type: functional, cell-based
# MDA-MB-231 [2] = test: Induction of apoptosis in human MDA-MB-231 cells assessed as early apoptotic cells at 1 uM measured for 48 hrs by Annexin V-FITC/PI staining based flow cytometry assay (reference value: 0.49%); type: functional
# MDA-MB-231 [3] = test: Induction of apoptosis in human MDA-MB-231 cells assessed as necrotic cells at 10 uM measured for 48 hrs by Annexin V-FITC/PI staining based flow cytometry assay (reference value: 0.43%); type: functional
# MDA-MB-231 [4] = test: Induction of cell cycle arrest in human MDA-MB-231 cells assessed as accumulation of cells at G0/G1 phase at 1 uM incubated for 48 hrs by propidium iodide staining based flow cytometry (reference value: 90.25%); type: functional
# MDA-MB-231 [5] = test: Induction of cell cycle arrest in human MDA-MB-231 cells assessed as accumulation of cells at G0/G1 phase at 20 uM incubated for 48 hrs by propidium iodide staining based flow cytometry (reference value: 90.25%); type: functional
# MDA-MB-231 [6] = test: Induction of apoptosis in human MDA-MB-231 cells assessed as viable cells at 5 uM measured for 48 hrs by Annexin V-FITC/PI staining based flow cytometry assay (reference value: 93.7%); type: functional; conditions: read-out: Activity
# MDA-MB-231 [7] = test: Induction of cell cycle arrest in human MDA-MB-231 cells assessed as accumulation of cells at G2/M phase at 10 uM incubated for 48 hrs by propidium iodide staining based flow cytometry (reference value: 3.61%); type: functional
# MDA-MB-231 [8] = test: Induction of apoptosis in human MDA-MB-231 cells assessed as increase in ROS levels at 10 uM measured upto 48 hrs by DCFH-DA staining based flow cytometry assay; type: functional, cell-based
# HT-29 = test: Antiproliferative activity against human HT-29 cells assessed as cell growth inhibition incubated for 4 hrs by MTT assay; type: functional, cell-based; conditions: HT-29, 4 h
# MDA-MB-231 [9] = test: Induction of cell cycle arrest in human MDA-MB-231 cells assessed as accumulation of cells at M1 phase at 20 uM incubated for 48 hrs by propidium iodide staining based flow cytometry (reference value: 7.1%); type: functional
# MDA-MB-231 [10] = test: Induction of apoptosis in human MDA-MB-231 cells assessed as early apoptotic cells at 5 uM measured for 48 hrs by Annexin V-FITC/PI staining based flow cytometry assay (reference value: 0.49%); type: functional
# MDA-MB-231 [11] = test: Inhibition of colony formation in human MDA-MB-231 cells upto 5 uM for 9 days by crystal violet staining based assay; type: functional, cell-based; conditions: time 9.0 day
# MDA-MB-231 [12] = test: Induction of apoptosis in human MDA-MB-231 cells assessed as viable cells at 10 uM measured for 48 hrs by Annexin V-FITC/PI staining based flow cytometry assay (reference value: 93.7%); type: functional; conditions: read-out: Activity
# MDA-MB-231 [13] = test: Induction of apoptosis in human MDA-MB-231 cells assessed as necrotic cells at 1 uM measured for 48 hrs by Annexin V-FITC/PI staining based flow cytometry assay (reference value: 0.43%); type: functional
# A549 = test: Antiproliferative activity against human A549 cells assessed as cell growth inhibition incubated for 4 hrs by MTT assay; type: functional, cell-based; conditions: A549, 4 h
# MDA-MB-231 [14] = test: Induction of cell cycle arrest in human MDA-MB-231 cells assessed as accumulation of cells at S phase at 1 uM incubated for 48 hrs by propidium iodide staining based flow cytometry (reference value: 3.62%); type: functional
# MDA-MB-231 [15] = test: Induction of apoptosis in human MDA-MB-231 cells assessed as necrotic cells at 5 uM measured for 48 hrs by Annexin V-FITC/PI staining based flow cytometry assay (reference value: 0.43%); type: functional
# MDA-MB-231 [16] = test: Induction of apoptosis in human MDA-MB-231 cells assessed as upregulation of PARP level upto 20 uM incubated for 48 hrs by Western blot analysis; type: functional, cell-based
# MDA-MB-231 [17] = test: Induction of apoptosis in human MDA-MB-231 cells assessed as late apoptotic cells at 1 uM measured for 48 hrs by Annexin V-FITC/PI staining based flow cytometry assay (reference value: 5.39%); type: functional
# MDA-MB-231 [18] = test: Induction of cell cycle arrest in human MDA-MB-231 cells assessed as accumulation of cells at S phase at 5 uM incubated for 48 hrs by propidium iodide staining based flow cytometry (reference value: 3.62%); type: functional
# MDA-MB-231 [19] = test: Induction of cell cycle arrest in human MDA-MB-231 cells assessed as accumulation of cells at G0/G1 phase at 5 uM incubated for 48 hrs by propidium iodide staining based flow cytometry (reference value: 90.25%); type: functional
# MDA-MB-231 [20] = test: Induction of cell cycle arrest in human MDA-MB-231 cells assessed as accumulation of cells at S phase at 20 uM incubated for 48 hrs by propidium iodide staining based flow cytometry (reference value: 3.62%); type: functional
# MDA-MB-231 [21] = test: Induction of apoptosis in human MDA-MB-231 cells assessed as increase in ROS levels at 10 uM measured at 12 hrs by DCFH-DA staining based flow cytometry assay; type: functional, cell-based
# MDA-MB-231 [22] = test: Induction of cell cycle arrest in human MDA-MB-231 cells assessed as accumulation of cells at M1 phase at 5 uM incubated for 48 hrs by propidium iodide staining based flow cytometry (reference value: 7.1%); type: functional
# MDA-MB-231 [23] = test: Induction of cell cycle arrest in human MDA-MB-231 cells assessed as accumulation of cells at M1 phase at 1 uM incubated for 48 hrs by propidium iodide staining based flow cytometry (reference value: 7.1%); type: functional
# MDA-MB-231 [24] = test: Induction of apoptosis in human MDA-MB-231 cells assessed as late apoptotic cells at 5 uM measured for 48 hrs by Annexin V-FITC/PI staining based flow cytometry assay (reference value: 5.39%); type: functional
# [25] = Selectivity index, ratio of IC50 for antiproliferative activity against human A549 cells to IC50 for antiproliferative activity against human MDA-MB-231 cells; type: functional
# MDA-MB-231 [26] = test: Induction of cell cycle arrest in human MDA-MB-231 cells assessed as accumulation of cells at M1 phase at 10 uM incubated for 48 hrs by propidium iodide staining based flow cytometry (reference value: 7.1%); type: functional
# MDA-MB-231 [27] = test: Induction of apoptosis in human MDA-MB-231 cells assessed as early apoptotic cells at 10 uM measured for 48 hrs by Annexin V-FITC/PI staining based flow cytometry assay (reference value: 0.49%); type: functional
# MDA-MB-231 [28] = test: Induction of cell cycle arrest in human MDA-MB-231 cells assessed as accumulation of cells at G2/M phase at 1 uM incubated for 48 hrs by propidium iodide staining based flow cytometry (reference value: 3.61%); type: functional
# MDA-MB-231 [29] = test: Induction of apoptosis in human MDA-MB-231 cells assessed as late apoptotic cells at 13.5 uM measured for 48 hrs by Annexin V-FITC/PI staining based flow cytometry assay (reference value: 5.39%); type: functional
# MDA-MB-231 [30] = test: Induction of apoptosis in human MDA-MB-231 cells assessed as upregulation of cleaved caspase-3 level upto 20 uM incubated for 48 hrs by Western blot analysis; type: functional, cell-based
# MDA-MB-231 [31] = test: Induction of apoptosis in human MDA-MB-231 cells assessed as viable cells at 1 uM measured for 48 hrs by Annexin V-FITC/PI staining based flow cytometry assay (reference value: 93.7%); type: functional; conditions: read-out: Activity
# MDA-MB-231 [32] = test: Induction of cell cycle arrest in human MDA-MB-231 cells assessed as accumulation of cells at G2/M phase at 20 uM incubated for 48 hrs by propidium iodide staining based flow cytometry (reference value: 3.61%); type: functional
# MDA-MB-231 [33] = test: Induction of apoptosis in human MDA-MB-231 cells assessed as increase in Bax level upto 20 uM incubated for 48 hrs by Western blot analysis; type: functional, cell-based
# [34] = Selectivity index, ratio of IC50 for antiproliferative activity against human HT-29 cells to IC50 for antiproliferative activity against human MDA-MB-231 cells; type: functional
# MDA-MB-231 [35] = test: Antiproliferative activity against human MDA-MB-231 cells assessed as cell growth inhibition incubated for 4 hrs by MTT assay; type: functional, cell-based; conditions: MDA-MB-231, 4 h
# MDA-MB-231 [36] = test: Induction of cell cycle arrest in human MDA-MB-231 cells assessed as accumulation of cells at G2/M phase at 5 uM incubated for 48 hrs by propidium iodide staining based flow cytometry (reference value: 3.61%); type: functional
# MDA-MB-231 [37] = test: Induction of cell cycle arrest in human MDA-MB-231 cells assessed as accumulation of cells at S phase at 10 uM incubated for 48 hrs by propidium iodide staining based flow cytometry (reference value: 3.62%); type: functional
# MDA-MB-231 [38] = test: Induction of cell cycle arrest in human MDA-MB-231 cells assessed as accumulation of cells at G0/G1 phase at 10 uM incubated for 48 hrs by propidium iodide staining based flow cytometry (reference value: 90.25%); type: functional
smiles,measurement,setting,value
COc1ccccc1/C=C/C(=O)NCCNC(=O)[C@H]1CC[C@H]2[C@@H]3CCC4=CC(=O)CC[C@]4(C)[C@H]3CC[C@]12C,Activity,MDA-MB-231 [1],Active
same,Activity,MDA-MB-231 [2],9.24%
same,Activity,MDA-MB-231 [3],0.4%
same,Activity,MDA-MB-231 [4],84.13%
same,Activity,MDA-MB-231 [5],47.17%
same,viability at 5 µM,MDA-MB-231 [6],78.3%
same,Activity,MDA-MB-231 [7],13.15%
same,Activity,MDA-MB-231 [8],Active
same,IC50,HT-29,11.7 µM
same,Activity,MDA-MB-231 [9],37.4%
same,Activity,MDA-MB-231 [10],17.1%
same,inhibition,MDA-MB-231 [11],Active
same,viability at 10 µM,MDA-MB-231 [12],41.1%
same,Activity,MDA-MB-231 [13],0.16%
same,IC50,A549,30.9 µM
same,Activity,MDA-MB-231 [14],2.52%
same,Activity,MDA-MB-231 [15],0.16%
same,Activity,MDA-MB-231 [16],Active
same,Activity,MDA-MB-231 [17],6.63%
same,Activity,MDA-MB-231 [18],15.23%
same,Activity,MDA-MB-231 [19],69.83%
same,Activity,MDA-MB-231 [20],37.22%
same,Activity,MDA-MB-231 [21],Active
same,Activity,MDA-MB-231 [22],16%
same,Activity,MDA-MB-231 [23],13.8%
same,Activity,MDA-MB-231 [24],4.35%
same,Ratio IC50,[25],73.5
same,Activity,MDA-MB-231 [26],22.8%
same,Activity,MDA-MB-231 [27],45%
same,Activity,MDA-MB-231 [28],12.11%
same,Activity,MDA-MB-231 [29],13.5%
same,Activity,MDA-MB-231 [30],Active
same,viability at 1 µM,MDA-MB-231 [31],84%
same,Activity,MDA-MB-231 [32],10.01%
same,Activity,MDA-MB-231 [33],Active
same,Ratio IC50,[34],22.5
same,IC50,MDA-MB-231 [35],0.42 µM
same,Activity,MDA-MB-231 [36],12.25%
same,Activity,MDA-MB-231 [37],28.07%
same,Activity,MDA-MB-231 [38],55.27%
